The assay addresses T1, mAChR M4 (Homo sapiens, UniProt P08173).
T1 construct: expressed in transfected cells; host or cells: CHO-K1 cells, also stably transfected with the chimeric G-protein Gqi5
T1 sequence (P08173 1-479): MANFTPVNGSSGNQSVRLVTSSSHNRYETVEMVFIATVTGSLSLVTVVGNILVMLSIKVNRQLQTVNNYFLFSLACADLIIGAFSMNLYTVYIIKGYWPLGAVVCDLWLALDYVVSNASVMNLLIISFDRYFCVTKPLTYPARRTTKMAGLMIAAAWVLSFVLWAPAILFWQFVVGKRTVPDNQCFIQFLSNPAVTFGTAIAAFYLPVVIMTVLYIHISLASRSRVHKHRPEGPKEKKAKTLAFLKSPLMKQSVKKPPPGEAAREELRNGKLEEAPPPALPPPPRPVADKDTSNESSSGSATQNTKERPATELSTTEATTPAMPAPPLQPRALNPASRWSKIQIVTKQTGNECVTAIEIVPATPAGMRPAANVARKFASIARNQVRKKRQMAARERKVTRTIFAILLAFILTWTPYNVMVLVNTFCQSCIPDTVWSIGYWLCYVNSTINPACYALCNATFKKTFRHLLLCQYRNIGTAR
As to the kind of experiment: mAChR M4 cell-based functional assay (calcium mobilization, potentiation of EC20 acetylcholine response). The conditions noted are these: for Emax at 30 µM: % ACh maximum at 30 μM; for EC50: CHO-K1 cells expressing mAChR M4 (Gqi5), calcium flux, increase in EC20 acetylcholine response, >10,000 estimated where the curve has no plateau. The text has this: Chinese hamster ovary (CHO-K1) cells stably expressing rat (r)M1 were purchased from the American Type Culture Collection and cultured according to their indicated protocol. CHO cells stably expressing human (h)M2, hM3, and hM5 were described previously (Levey et al., 1991); hM1 and hM4 cDNAs were purchased from Missouri S&T cDNA Resource; rM4 cDNA was provided by T. I. Bonner (National Institutes of Health, Bethesda, Md.). rM2 and rM3 were cloned from a rat brain cDNA library and sequence verified. hM1, rM2, rM3, hM4, and rM4 cDNAs were used to stably transfect CHO-K1 cells purchased from the American Type Culture Collection using Lipofectamine 2000. To make stable rM2, hM2, hM4, and rM4 cell lines for use in calcium mobilization assays, these cells also were stably transfected with a chimeric G-protein (Gqi5) (provided by B. R. Conklin, University of California, San Francisco) using Lipofectamine 2000. rM1, hM1, rM3, hM3, rM5, and hM5 cells were grown in Ham's F-12 medium containing 10% heat-inactivated fetal bovine serum (FBS), 20 mM HEPES, and 50 µg/mL G418 sulfate. rM2-Gqi5, hM2-Gqi5, and hM4-Gqi5 cells were grown in the same medium also containing 500 µg/mL Hygromycin B. Stable rM4-Gqi5 cells were grown in DMEM containing 10% heat-inactivated FBS, 20 mM HEPES, 400 μg/mL G418 sulfate, and 500 μg/mL Hygromycin B.
For high throughput measurement of agonist-evoked increases in intracellular calcium, CHO-K1 cells stably expressing muscarinic receptors were plated in growth medium lacking G418 and hygromycin at 15,000 cells/20 μL/well in Greiner 384-well black-walled, tissue culture (TC)-treated, clear-bottom plates (VWR). Cells were incubated overnight at 37° C. and 5% CO2. The next day, cells were washed using an ELX 405 (BioTek) with four washes (80 μL) of assay buffer then aspirated to 20 μL. Next, 20 μL of 16 μM Fluo-4/acetoxymethyl ester (Invitrogen, Carlsbad, Calif.) prepared as a 2.3 mM stock in DMSO and mixed in a 1:1 ratio with 10% (w/v) Pluronic F-127 and diluted in assay buffer was added to the wells and the cell plates were incubated for 50 min at 37° C. and 5% CO2. Dye was removed by washing with the ELX 405 (four 80 μL washes of assay buffer) then aspirated to 20 μL. Compound master plates were formatted in an 11 point CRC format (1:3 dilutions) in 100% DMSO with a starting concentration of 10 mM using the BRAVO liquid handler (Agilent). Test compound CRCs were then transferred to daughter plates (240 nL) using the Echo acoustic plate reformatter (Labcyte, Sunnyvale, Calif.) and then diluted into assay buffer (40 μL) to a 2× stock using a Thermo Fisher Combi (Thermo Fisher Scientific, Waltham, Mass.).
Calcium flux was measured using the Functional Drug Screening System (FDSS) 6000 (Hamamatsu Corporation, Tokyo, Japan) as an increase in the fluorescent static ratio. Compounds were applied to cells (20 μL, 2×) using the automated system of the FDSS 6000 at 4 s into the 300 s protocol and the data were collected at 1 Hz. At 144 s into the 300 s protocol, 10 μL of an EC20 concentration of the muscarinic receptor agonist acetylcholine was added (5×), followed by the addition of 12 μL an EC80 concentration of acetylcholine at the 230 s time point (5×). Agonist activity was analyzed as a concentration-dependent increase in calcium mobilization upon compound addition. Positive allosteric modulator activity was analyzed as a concentration-dependent increase in the EC20 acetylcholine response. Antagonist activity was analyzed as a concentration-dependent decrease in the EC80 acetylcholine response. Concentration-response curves were generated using a four-parameter logistical equation in XLFit™ curve fitting software (IDBS, Bridgewater, N.J.) for Excel (Microsoft, Redmond, Wash.) or Prism (GraphPad Software, Inc., San Diego, Calif.). […]

Take `Cc1nnc2sc(C(=O)NC3COC3)c(C3CC3)c2c1C` [B13]: the Emax at 30 µM was 46% and the EC50 was ~9 µM.

For the compound `Cc1nnc2sc(C(=O)N3CCC(c4ccccc4)C3)c(C)c2c1C` (centres unmarked) [B19], the concentration giving a half-maximal response (EC50) is > 10 µM.

In the case of `COc1ccc(CNC(=O)c2sc3nnc(C)c(C)c3c2Br)cc1` [B2], the Emax at 30 µM amounted to 36% and the EC50 was 3.7 µM.

On to `Cc1nnc2sc(C(=O)NCc3ccc(S(=O)(=O)C(F)(F)F)cc3)c(Br)c2c1C` [B1], for which the EC50 is > 10 µM.

With `COc1ccc(C2CC2NC(=O)c2sc3nnc(C)c(C)c3c2C2CC2)cc1` (centres unmarked) [B12], the EC50 was > 10 µM.

On to `Cc1nnc2sc(C(=O)NC3CN(c4ccc(C(F)(F)F)nc4)C3)c(C3CC3)c2c1C` [B22], for which the Emax at 30 µM was 24% and the EC50 is 3.1 µM.

In the case of `COc1ccc(CNC(=O)c2cc3c(C)c(C)nnc3s2)cc1F` [B4], the maximal response (Emax) at 30 µM stood at 68% and the 50% effective concentration (EC50) is 1.4 µM.

`Cc1nnc2sc(C(=O)NC3CC(F)(F)C3)c(C3CC3)c2c1C` [B17]: the Emax at 30 µM stood at 35% and the EC50 was > 10 µM.

With `Cc1nnc2sc(C(=O)NC3CCC3)c(C3CC3)c2c1C` [B15], the Emax at 30 µM came out at 33% and the EC50 was 5.2 µM.

Take `COc1ccc(C2CC2NC(=O)c2sc3nnc(C)c(C)c3c2C)cc1` (centres unmarked) [B21]: the maximal response (Emax) at 30 µM came to 51% and the EC50 is 2.1 µM.

`Cc1nnc2sc(C(=O)NC3CC3)c(C)c2c1C` [B14]: the maximum response (Emax) at 30 µM is 68% and the concentration giving a half-maximal response (EC50) was > 10 µM.

`COc1ccc(CNC(=O)c2sc3nnc(C)c(C)c3c2C2CC2)cc1F` [B18]: the Emax at 30 µM was determined as 38% and the EC50 was 4.4 µM.

With `Cc1nnc2sc(C(=O)N3CC(c4ccccc4)C3)c(C3CC3)c2c1C` [B8], the EC50 was > 10 µM.

As for `Cc1nnc2sc(C(=O)N3CCC(c4ccccc4)C3)c(C3CC3)c2c1C` (centres unmarked) [B16], the concentration for a half-maximal effect (EC50) was > 10 µM.

Consider `Cc1nnc2sc(C(=O)NC3COC3)cc2c1C` [B6], for which the maximal effect (Emax) at 30 µM turned out to be 76% and the EC50 was 3.9 µM.

Turning to `Cc1nnc2sc(C(=O)NC3CN(c4ccc(C(F)(F)F)nc4)C3)cc2c1C` [B3], the Emax at 30 µM came out at 53% and the EC50 was 1 µM.

For the compound `Cc1nnc2sc(C(=O)NC3CC3)c(C3CC3)c2c1C` [B11], the maximal effect (Emax) at 30 µM is 35% and the 50% effective concentration (EC50) is > 10 µM.

`Cc1nnc2sc(C(=O)NC3COC3)c(C)c2c1C` [B23]: the Emax at 30 µM is 65% and the EC50 is > 10 µM.

Take `Cc1nnc2sc(C(=O)NC3CCN(c4ccccc4)C3)cc2c1C` (centres unmarked) [B5]: the concentration for a half-maximal effect (EC50) is > 10 µM.

With `COc1ccc(CNC(=O)c2sc3nnc(C)c(C)c3c2C)cc1F` [B9], the Emax at 30 µM is 59% and the EC50 is 2 µM.

In the case of `Cc1nnc2sc(C(=O)NC3CC3)cc2c1C` [B7], the maximal effect (Emax) at 30 µM was determined as 72% and the EC50 was 4.3 µM.

With `Cc1nnc2sc(C(=O)NC3CN(c4cccnc4)C3)c(C)c2c1C` [B20], the Emax at 30 µM was 69% and the 50% effective concentration (EC50) was 0.91 µM.

One may read the Emax as the greatest response seen or fitted, relative to the assay's reference. One may read the EC50 as the concentration giving half of the maximal effect.

The values are drawn from US9637498B2, “Substituted thieno[2,3-C]pyridazine-6-carboxamide analogs as positive allosteric modulators of the muscarinic acetylcholine receptor M4” (Vanderbilt University, priority 2013, dated 2017).
